Results taken from paper PMC11137008, “Cryo-EM analysis reveals human SID-1 transmembrane family member 1 dynamics underlying lipid hydrolytic activity” (Communications Biology, 2024).

B1: 46 bp dsRNA (dsRNA)
RNA 1: AUUCUGCGGAUUAUUUGGCAAAGGAAGCAUUGACACAUGCGCCAAU
RNA 2: AUUGGCGCAUGUGUCAAUGCUUCCUUUGCCAAAUAAUCCGCAGAAU

Tests used:
[1] = biological target: T1, human SIDT1 (hSIDT1) (Homo sapiens, UniProt Q9NXL6); assay: TLC fluorescence ceramidase assay; format: biochemical; settings: labelled compound; 10 mM methyl beta-cyclodextrin required (cholesterol depletion); pH 8.0, 0.01% GDN, 37 °C, 3 h
T1 construct: full length; expressed in Expi293F cells by baculovirus; digitonin extraction, GDN micelle; N-glycosylated homodimer
T1 sequence (Q9NXL6 20-827): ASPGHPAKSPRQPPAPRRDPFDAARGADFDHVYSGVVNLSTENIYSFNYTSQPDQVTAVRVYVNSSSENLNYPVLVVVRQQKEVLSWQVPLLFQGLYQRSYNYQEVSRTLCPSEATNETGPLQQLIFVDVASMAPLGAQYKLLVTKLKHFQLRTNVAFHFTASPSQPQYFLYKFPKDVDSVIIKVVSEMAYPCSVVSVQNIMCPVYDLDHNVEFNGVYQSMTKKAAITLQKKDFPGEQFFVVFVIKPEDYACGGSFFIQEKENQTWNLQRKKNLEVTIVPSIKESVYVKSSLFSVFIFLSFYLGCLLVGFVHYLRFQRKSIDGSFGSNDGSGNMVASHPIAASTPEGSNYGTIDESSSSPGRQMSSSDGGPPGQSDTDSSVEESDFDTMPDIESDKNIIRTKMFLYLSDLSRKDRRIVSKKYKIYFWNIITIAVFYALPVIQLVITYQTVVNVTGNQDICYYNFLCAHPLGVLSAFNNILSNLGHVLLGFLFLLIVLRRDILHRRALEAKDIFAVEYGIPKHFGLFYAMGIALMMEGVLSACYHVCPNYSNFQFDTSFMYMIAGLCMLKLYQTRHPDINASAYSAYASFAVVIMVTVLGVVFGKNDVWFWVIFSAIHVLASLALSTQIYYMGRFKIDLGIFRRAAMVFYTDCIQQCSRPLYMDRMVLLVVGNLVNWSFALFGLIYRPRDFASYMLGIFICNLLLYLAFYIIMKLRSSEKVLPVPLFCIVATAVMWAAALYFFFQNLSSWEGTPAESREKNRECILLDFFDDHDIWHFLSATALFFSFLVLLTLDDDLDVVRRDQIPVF

[2] = biological target: T1, human SIDT1 (hSIDT1); assay: cryo-EM structure, […] A; GC/MS of purified protein; format: binding; settings: endogenous, co-purified; allosteric; TM5/TM6/TM7 pocket at intracellular side; two molecules per protomer described (CLR1, CLR2); GDN, pH 6.0
[3] = biological target: T2, human SIDT1 full length WT (Homo sapiens, UniProt Q9NXL6 1-827); assay: EMSA; pH 7.0; EMSA: 1 or 2 uM 46 bp dsRNA with 0-8 uM hSIDT1 (mutants 1-5 uM, 1 uM dsRNA, pH 5.0), 4 C, 2 h; electrophoresis in Tris-acetate buffer at pH 4.0-7.0; protein stock in 20 mM MES pH 6.0, 150 mM NaCl, 0.01% GDN; settings: protein: recombinant; tags: C-terminal TEV site, FLAG, His10; chain copies: 2; blunt (implied by 46 bp)
T2 sequence: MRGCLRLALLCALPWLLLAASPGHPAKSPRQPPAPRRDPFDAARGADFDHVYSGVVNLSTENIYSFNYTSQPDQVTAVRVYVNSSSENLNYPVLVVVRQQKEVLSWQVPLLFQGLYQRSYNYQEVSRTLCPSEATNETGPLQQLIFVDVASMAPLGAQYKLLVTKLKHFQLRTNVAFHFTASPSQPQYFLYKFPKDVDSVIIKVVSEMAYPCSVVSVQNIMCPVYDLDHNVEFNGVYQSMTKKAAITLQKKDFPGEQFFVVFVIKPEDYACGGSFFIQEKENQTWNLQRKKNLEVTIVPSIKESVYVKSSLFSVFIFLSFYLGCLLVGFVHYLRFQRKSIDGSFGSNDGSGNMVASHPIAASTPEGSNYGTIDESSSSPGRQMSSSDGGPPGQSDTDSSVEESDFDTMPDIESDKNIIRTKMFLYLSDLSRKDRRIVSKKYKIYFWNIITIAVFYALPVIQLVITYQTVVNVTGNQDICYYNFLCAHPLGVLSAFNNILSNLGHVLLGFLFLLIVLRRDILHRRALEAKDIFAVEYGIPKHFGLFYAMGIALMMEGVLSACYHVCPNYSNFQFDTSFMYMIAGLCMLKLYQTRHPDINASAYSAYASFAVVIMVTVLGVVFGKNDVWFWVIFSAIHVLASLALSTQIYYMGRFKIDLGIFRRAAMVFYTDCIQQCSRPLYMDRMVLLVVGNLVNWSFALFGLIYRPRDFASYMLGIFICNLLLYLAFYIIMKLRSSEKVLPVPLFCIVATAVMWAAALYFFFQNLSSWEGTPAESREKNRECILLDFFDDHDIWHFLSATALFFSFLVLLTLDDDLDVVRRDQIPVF

Row | Molecule | TLC fluorescence ceramidase assay [1] | also measured
1 | CCCCCCCCCCCCC/C=C/[C@@H](O)[C@H](CO)NC(=O)CCCCCCCCCCCNc1ccc([N+](=O)[O-])c2nonc12 [C12 NBD ceramide] | SIDT1 exhibited a ceramidase activity only in the presence of methyl β-cyclodextrin | –
2 | CC(C)CCC[C@@H](C)[C@H]1CC[C@H]2[C@@H]3CC=C4C[C@@H](O)CC[C@]4(C)[C@H]3CC[C@]12C [cholesterol] | – | cryo-EM structure, 2.77 A; GC/MS of purified protein [2]: endogenous cholesterol is assumed to be co-purified with SIDT1
3 | CCCCCCCCCCCCCCC[C@@H](O)[C@H](CO)NC(=O)CCCCCCCCCCCNc1ccc([N+](=O)[O-])c2nonc12 [C12 NBD dihydroceramide] | SIDT1 also harbors a ceramidase activity to ceramide and dihydroceramide | –
4 | B1 | – | binding result [3]: binds
